From patent publication US20150261911A1, “CRYSTAL STRUCTURE” (Heptares Therapeutics Limited, priority 2014, published 2015) come the findings set out here.

Data set [1] addresses T1, CRF1R F203A(3.44) (Homo sapiens, UniProt P34998, F203A).
T1 construct: expressed in transfected cells; host or cells: HEK293T, transient; whole cells solubilised in DDM
T1 sequence (P34998 with tags, fused parts or gaps F203A): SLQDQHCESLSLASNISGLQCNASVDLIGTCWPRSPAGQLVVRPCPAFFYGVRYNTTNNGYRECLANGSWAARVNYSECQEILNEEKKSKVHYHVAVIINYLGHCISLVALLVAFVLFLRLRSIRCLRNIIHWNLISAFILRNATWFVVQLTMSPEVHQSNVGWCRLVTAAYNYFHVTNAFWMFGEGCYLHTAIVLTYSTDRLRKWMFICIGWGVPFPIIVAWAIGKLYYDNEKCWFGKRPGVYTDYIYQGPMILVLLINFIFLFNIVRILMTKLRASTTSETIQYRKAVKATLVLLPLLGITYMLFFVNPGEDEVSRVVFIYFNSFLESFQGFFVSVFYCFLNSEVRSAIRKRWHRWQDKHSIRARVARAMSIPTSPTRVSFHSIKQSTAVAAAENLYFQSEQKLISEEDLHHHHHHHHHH
Kind of data set: Solubilised whole cell ligand binding, alanine mutagenesis. To be noted: Phe203^3.44Ala. On the procedure:
(§1) HEK293T cells transiently transfected with CRF1R constructs were incubated in buffer (50mMTris-HCl pH 7.5, 150mMNaCl, EDTA-free protease inhibitors) with 30 nM [^3H]CP-376395, and 120 nM cold CP-376395 (Tocris) for 18 hours at room temperature. Reactions were transferred to ice and all subsequent steps performed at 4° C. Cells were solubilized in 1% (w/v) n-dodecyl-β-D-maltopyranoside (DDM, Affymetrix) for 1 hour and crude lysates cleared by centrifugation at 16.000×g for 15 minutes. Thermostability of the receptor was measured by incubation at varying temperatures for 30 minutes followed by separation of excess and unbound radioligand by gel filtration. Levels of ligand-bound receptor were then determined using a liquid scintillation counter.
(§2) For saturation binding experiments, membranes isolated from HEK293T cells transiently expressing wild-type CRF1R (15 μg/well), CRF1R StaR (6 μg/well), CRF1R StaR with T4L fusion (20 μg/well), and CRF1R-#105 (20 μg/well) were incubated in buffer (50mMTris-HCl pH 7.5, 150 mM NaCl, 0.1% (w/v) PEI, EDTA-free protease inhibitors) with [^3H]CP-376395 (0-60 nM) in the presence or absence of 30 uM cold CP-376395 in a final volume of 500 μl. Final DMSO concentration in each reaction was 5% (v/v). Membranes were incubated for 18 hours at room temperature before being terminated by rapid filtration through 96-well GF/C UniFilter plates pre-soaked in 0.3% (w/v) PEI, followed by washing with PBS with 0.15% (w/v) CHAPS. Plates were dried, 50 μl Ultima Gold-F added per well and bound ligand measured using a Packard Microbeta counter. Data were analyzed using a global fitted one-site binding hyperbola in GraphPad Prism v5 to generate Kd. For solubilized whole cell ligand binding experiments, HEK293T cells transiently expressing eGFP-tagged wild-type CRF1R or single point mutants were treated as described above for thermostability experiments, without the 30 minute heating step. Specific binding was determined by subtracting untransfected controls. Expression of each construct was quantified by eGFP fluorescence of whole cells measured at Ex/Em of 488/520 nm.

Data set [2] concerns the target T2, CRF1R N283A(5.50) (Homo sapiens, UniProt P34998, N283A).
T2 construct: expressed in transfected cells; host or cells: HEK293T, transient; whole cells solubilised in DDM
T2 sequence (P34998 with tags, fused parts or gaps N283A): T1 sequence (P34998 with tags, fused parts or gaps F203A) with A180F, N260A
The data set is described as above. The settings on record: Asn283^5.50Ala. Here is the method: as §1, §2

In data set [3] the target is T3, CRF1R Q355A(7.49) (Homo sapiens, UniProt P34998, Q355A).
T3 construct: expressed in transfected cells; host or cells: HEK293T, transient; whole cells solubilised in DDM
T3 sequence (P34998 with tags, fused parts or gaps Q355A): T1 sequence (P34998 with tags, fused parts or gaps F203A) with A180F, Q332A
The description is as above. To be noted: Gln355^7.49 substituted with alanine. Here is the method: as §1, §2

Data set [4] addresses T4, CRF1R L280A(5.47) (Homo sapiens, UniProt P34998, L280A).
T4 construct: expressed in transfected cells; host or cells: HEK293T, transient; whole cells solubilised in DDM
T4 sequence (P34998 with tags, fused parts or gaps L280A): T1 sequence (P34998 with tags, fused parts or gaps F203A) with A180F, L257A
The description is as above. The settings on record: Leu280^5.47Ala. On the procedure: as §1, §2

Data set [5] is described as follows: Thermostability measurement of CRF1R constructs solubilised in DDM, read out by [3H]CP-376395 binding. In kind it is physicochemical, human. The settings on record: measured using [3H]CP-376395 binding, mean of four independent experiments, standard deviation in parentheses. Here is the method: as §1

Substitutions are numbered along the chain they refer to. Names and notes keep the numbering of the source. “Also recorded” adds a separate entry of the source.

For `CCC(CC)Nc1cc(C)nc(Oc2c(C)cc(C)cc2C)c1C` [CP-376395], the “antagonist binding after mutation to alanine” value in data set [1] and in data set [4] was “negligible or no binding detected” throughout. Further, the “ligand binding after mutation to alanine” value in data set [2] was “complete loss of ligand binding; also recorded: negligible or no binding detected”. The “CP-376395 binding after substitution with alanine” value in data set [3] is “did not affect”.

B1: CRF1R wild type: wild-type human corticotropin-releasing factor receptor 1 (FIG. 12, SEQ ID NO:18) (protein)
chain: MGGHPQLRLVKALLLLGLNPVSASLQDQHCESLSLASNISGLQCNASVDLIGTCWPRSPAGQLVVRPCPAFFYGVRYNTTNNGYRECLANGSWAARVNYSECQEILNEEKKSKVHYHVAVIINYLGHCISLVALLVAFVLFLRLRSIRCLRNIIHWNLISAFILRNATWFVVQLTMSPEVHQSNVGWCRLVTAAYNYFHVTNFFWMFGEGCYLHTAIVLTYSTDRLRKWMFICIGWGVPFPIIVAWAIGKLYYDNEKCWFGKRPGVYTDYIYQGPMILVLLINFIFLFNIVRILMTKLRASTTSETIQYRKAVKATLVLLPLLGITYMLFFVNPGEDEVSRVVFIYFNSFLESFQGFFVSVFYCFLNSEVRSAIRKRWHRWQDKHSIRARVARAMSIPTSPTRVSFHSIKQSTAVAAAENLYFQSEQKLISEEDLHHHHHHHHHH
B1: the “Mean Tm” value in data set [5] is 18.4 (2.0) ° C.

B2: CRF1R StaR: thermostabilized CRF1R with 12 mutations: V120A, L144A, W156A, S160A, S222A, K228A, F260A, I277A, Y309A, F330A, S349A, Y363A (protein)
chain: MGGHPQLRLVKALLLLGLNPVSASLQDQHCESLSLASNISGLQCNASVDLIGTCWPRSPAGQLVVRPCPAFFYGVRYNTTNNGYRECLANGSWAARVNYSECQEILNEEKKSKVHYHVAAIINYLGHCISLVALLVAFVLFLRARSIRCLRNIIHANLIAAFILRNATWFVVQLTMSPEVHQSNVGWCRLVTAAYNYFHVTNFFWMFGEGCYLHTAIVLTYATDRLRAWMFICIGWGVPFPIIVAWAIGKLYYDNEKCWAGKRPGVYTDYIYQGPMALVLLINFIFLFNIVRILMTKLRASTTSETIQARKAVKATLVLLPLLGITYMLAFVNPGEDEVSRVVFIYFNAFLESFQGFFVSVFACFLNSEVRSAIRKRWHRWQDKHSIRARVARAMSIPTSPTRVSFHSIKQSTAVAAAENLYFQSEQKLISEEDLHHHHHHHHHH
modifications: C-terminal tag
As to B2, the “Mean Tm” value in data set [5] is 44.7 (2.2) ° C.
